From the kinase profiling compilation of Christmann-Franck et al. (2016)

Key:
Assay in all cases: KINOMEscan competition binding
Details in all cases: compound 10.0 µM
ABL2 (human) = ABL2 (human) (UniProt P42684)
ACVR2A (human) = ACVR2A (human) (UniProt P27037)
AKT1 (human) = AKT1 (human) (UniProt P31749)
AKT3 (human) = AKT3 (human) (UniProt Q9Y243)
AXL (human) = AXL (human) (UniProt P30530)
BMPR1B (human) = BMPR1B (human) (UniProt O00238)
CAMK2A (human) = CAMK2A (human) (UniProt Q9UQM7)
CDC2L2 (human) = CDC2L2 (human) (UniProt Q9UQ88)
CDK14 (human) = CDK14 (human) (UniProt O94921)
CLK3 (human) = CLK3 (human) (UniProt P49761)
CSNK1E (human) = CSNK1E (human) (UniProt P49674)
DMPK (human) = DMPK (human) (UniProt Q09013)
DSTYK (human) = DSTYK (human) (UniProt Q6XUX3)
DYRK1B (human) = DYRK1B (human) (UniProt Q9Y463)
EPHB1 (human) = EPHB1 (human) (UniProt P54762)
EPHB4 (human) = EPHB4 (human) (UniProt P54760)
ERBB4 (human) = ERBB4 (human) (UniProt Q15303)
FGFR1 (human) = FGFR1 (human) (UniProt P11362)
GSK3A (human) = GSK3A (human) (UniProt P49840)
MAP2K6 (human) = MAP2K6 (human) (UniProt P52564)
MAP4K5 (human) = MAP4K5 (human) (UniProt Q9Y4K4)
MAPK1 (human) = MAPK1 (human) (UniProt P28482)
MELK (human) = MELK (human) (UniProt Q14680)
MYLK3 (human) = MYLK3 (human) (UniProt Q32MK0)
NEK4 (human) = NEK4 (human) (UniProt P51957)
NIM1 (human) = NIM1 (human) (UniProt Q8IY84)
PAK1 (human) = PAK1 (human) (UniProt Q13153)
PAK3 (human) = PAK3 (human) (UniProt O75914)
PIK3C2G (human) = PIK3C2G (human) (UniProt O75747)
PKMYT1 (human) = PKMYT1 (human) (UniProt Q99640)
RAF1 (human) = RAF1 (human) (UniProt P04049)
[1] = tested on: RET (human), P07949 [V804L]
RIPK4 (human) = RIPK4 (human) (UniProt P57078)
SRC (human) = SRC (human) (UniProt P12931)
SRPK3 (human) = SRPK3 (human) (UniProt Q9UPE1)
STK11 (human) = STK11 (human) (UniProt Q15831)
STK24 (human) = STK24 (human) (UniProt Q9Y6E0)
STK25 (human) = STK25 (human) (UniProt O00506)
TNIK (human) = TNIK (human) (UniProt Q9UKE5)
ULK2 (human) = ULK2 (human) (UniProt Q8IYT8)
WEE2 (human) = WEE2 (human) (UniProt P0C1S8)
Chain of WEE2 (human) (P0C1S8 whole entry, looked up): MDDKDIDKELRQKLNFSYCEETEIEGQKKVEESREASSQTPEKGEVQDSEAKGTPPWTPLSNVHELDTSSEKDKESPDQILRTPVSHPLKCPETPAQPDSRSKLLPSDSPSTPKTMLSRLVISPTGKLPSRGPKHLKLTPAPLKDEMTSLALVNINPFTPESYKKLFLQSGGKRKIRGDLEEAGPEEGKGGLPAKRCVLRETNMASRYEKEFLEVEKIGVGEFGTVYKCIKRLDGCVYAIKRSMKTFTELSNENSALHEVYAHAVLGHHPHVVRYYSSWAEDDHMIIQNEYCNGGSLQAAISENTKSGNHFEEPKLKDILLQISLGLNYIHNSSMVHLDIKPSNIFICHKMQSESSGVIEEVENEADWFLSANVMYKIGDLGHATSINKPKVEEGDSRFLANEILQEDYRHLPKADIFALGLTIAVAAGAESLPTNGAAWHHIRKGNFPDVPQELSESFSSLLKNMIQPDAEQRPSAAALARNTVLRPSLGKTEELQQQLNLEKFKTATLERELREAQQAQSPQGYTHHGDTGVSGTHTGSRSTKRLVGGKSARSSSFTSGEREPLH

Chain of STK24 (human) (Q9Y6E0 whole entry, looked up): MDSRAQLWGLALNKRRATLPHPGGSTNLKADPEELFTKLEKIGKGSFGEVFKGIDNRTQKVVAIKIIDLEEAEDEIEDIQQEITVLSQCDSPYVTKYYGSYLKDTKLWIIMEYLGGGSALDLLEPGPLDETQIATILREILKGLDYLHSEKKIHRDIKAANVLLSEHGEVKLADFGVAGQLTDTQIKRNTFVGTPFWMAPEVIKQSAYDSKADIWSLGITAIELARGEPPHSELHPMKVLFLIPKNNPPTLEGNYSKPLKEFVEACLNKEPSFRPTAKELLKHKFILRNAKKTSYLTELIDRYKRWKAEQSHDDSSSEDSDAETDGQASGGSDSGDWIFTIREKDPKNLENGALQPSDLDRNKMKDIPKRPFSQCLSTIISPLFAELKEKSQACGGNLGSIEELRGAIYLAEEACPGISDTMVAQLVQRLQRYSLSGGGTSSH
Chain of ULK2 (human) (Q8IYT8 whole entry, looked up): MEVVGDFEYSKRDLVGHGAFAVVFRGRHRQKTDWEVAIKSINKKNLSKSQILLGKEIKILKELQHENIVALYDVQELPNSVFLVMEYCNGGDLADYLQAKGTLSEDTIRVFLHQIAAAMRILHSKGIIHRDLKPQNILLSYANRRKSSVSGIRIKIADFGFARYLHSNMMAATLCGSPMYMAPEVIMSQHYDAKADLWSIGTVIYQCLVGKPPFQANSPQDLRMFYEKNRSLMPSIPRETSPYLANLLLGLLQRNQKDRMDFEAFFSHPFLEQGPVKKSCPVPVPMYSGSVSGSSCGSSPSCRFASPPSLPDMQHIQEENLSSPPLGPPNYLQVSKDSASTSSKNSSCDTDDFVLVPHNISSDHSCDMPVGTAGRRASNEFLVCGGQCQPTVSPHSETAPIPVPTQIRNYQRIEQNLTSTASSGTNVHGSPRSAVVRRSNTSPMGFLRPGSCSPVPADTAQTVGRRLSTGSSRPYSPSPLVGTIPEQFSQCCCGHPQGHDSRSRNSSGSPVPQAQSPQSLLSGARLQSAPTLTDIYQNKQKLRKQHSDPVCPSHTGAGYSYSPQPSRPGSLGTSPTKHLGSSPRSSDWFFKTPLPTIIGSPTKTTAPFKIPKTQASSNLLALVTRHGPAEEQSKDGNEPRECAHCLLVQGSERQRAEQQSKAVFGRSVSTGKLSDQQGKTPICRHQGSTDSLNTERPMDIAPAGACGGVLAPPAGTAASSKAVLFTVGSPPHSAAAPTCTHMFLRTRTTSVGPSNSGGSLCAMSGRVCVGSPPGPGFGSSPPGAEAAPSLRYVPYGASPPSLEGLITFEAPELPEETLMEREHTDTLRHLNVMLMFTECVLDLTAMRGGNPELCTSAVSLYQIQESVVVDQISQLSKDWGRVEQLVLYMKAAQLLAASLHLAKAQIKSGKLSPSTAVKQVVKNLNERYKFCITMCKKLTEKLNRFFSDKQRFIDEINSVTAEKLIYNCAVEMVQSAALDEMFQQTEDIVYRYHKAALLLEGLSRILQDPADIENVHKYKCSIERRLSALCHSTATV
Chain of CSNK1E (human) (P49674 whole entry, looked up): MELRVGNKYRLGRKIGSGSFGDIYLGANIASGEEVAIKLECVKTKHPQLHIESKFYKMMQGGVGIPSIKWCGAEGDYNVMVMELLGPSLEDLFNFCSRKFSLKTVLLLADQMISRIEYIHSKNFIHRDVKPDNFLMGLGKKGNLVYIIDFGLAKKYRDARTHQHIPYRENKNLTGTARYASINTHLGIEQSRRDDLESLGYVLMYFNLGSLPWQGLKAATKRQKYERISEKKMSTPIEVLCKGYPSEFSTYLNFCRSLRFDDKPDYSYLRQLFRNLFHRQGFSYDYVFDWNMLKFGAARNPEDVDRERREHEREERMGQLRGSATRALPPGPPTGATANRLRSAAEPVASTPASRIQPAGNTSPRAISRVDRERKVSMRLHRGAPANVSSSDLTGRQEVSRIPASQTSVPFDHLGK
Chain of RAF1 (human) (P04049 whole entry, looked up): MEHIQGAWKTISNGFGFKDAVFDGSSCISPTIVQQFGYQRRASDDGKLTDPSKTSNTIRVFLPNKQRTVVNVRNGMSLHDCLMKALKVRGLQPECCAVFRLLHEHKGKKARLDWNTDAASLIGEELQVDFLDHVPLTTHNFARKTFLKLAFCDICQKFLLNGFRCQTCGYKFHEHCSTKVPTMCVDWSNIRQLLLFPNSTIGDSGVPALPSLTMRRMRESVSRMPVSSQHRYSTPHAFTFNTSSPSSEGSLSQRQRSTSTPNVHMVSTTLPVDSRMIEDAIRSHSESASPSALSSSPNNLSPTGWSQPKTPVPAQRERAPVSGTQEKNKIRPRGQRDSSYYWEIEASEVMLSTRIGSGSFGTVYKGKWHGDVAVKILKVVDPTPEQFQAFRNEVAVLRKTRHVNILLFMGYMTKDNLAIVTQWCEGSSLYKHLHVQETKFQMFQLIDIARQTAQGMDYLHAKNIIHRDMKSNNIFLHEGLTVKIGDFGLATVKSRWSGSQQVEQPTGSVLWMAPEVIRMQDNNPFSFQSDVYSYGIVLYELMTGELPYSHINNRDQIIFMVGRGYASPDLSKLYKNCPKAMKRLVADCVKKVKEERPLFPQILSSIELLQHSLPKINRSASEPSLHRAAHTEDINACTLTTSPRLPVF
Chain of CDC2L2 (human) (Q9UQ88 whole entry, looked up): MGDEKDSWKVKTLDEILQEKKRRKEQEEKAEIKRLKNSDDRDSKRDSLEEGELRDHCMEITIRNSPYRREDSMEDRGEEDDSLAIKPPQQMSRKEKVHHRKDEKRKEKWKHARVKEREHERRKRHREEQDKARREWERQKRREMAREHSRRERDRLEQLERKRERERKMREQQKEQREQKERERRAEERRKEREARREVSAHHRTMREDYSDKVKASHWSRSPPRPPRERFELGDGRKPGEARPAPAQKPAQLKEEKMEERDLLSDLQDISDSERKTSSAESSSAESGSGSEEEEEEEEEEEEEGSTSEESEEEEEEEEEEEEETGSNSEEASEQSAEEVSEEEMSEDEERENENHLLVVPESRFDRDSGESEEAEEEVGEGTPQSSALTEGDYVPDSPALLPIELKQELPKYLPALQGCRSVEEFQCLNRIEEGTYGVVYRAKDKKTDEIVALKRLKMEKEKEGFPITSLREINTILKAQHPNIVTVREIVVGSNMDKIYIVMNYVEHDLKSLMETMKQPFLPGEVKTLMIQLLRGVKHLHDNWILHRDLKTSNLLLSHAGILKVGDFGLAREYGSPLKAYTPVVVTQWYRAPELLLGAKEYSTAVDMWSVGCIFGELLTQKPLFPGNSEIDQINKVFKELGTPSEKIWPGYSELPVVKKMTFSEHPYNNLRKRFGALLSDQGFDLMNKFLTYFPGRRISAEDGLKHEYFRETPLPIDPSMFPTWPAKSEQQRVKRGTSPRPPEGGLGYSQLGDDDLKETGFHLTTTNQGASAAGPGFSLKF
Chain of RIPK4 (human) (P57078 whole entry, looked up): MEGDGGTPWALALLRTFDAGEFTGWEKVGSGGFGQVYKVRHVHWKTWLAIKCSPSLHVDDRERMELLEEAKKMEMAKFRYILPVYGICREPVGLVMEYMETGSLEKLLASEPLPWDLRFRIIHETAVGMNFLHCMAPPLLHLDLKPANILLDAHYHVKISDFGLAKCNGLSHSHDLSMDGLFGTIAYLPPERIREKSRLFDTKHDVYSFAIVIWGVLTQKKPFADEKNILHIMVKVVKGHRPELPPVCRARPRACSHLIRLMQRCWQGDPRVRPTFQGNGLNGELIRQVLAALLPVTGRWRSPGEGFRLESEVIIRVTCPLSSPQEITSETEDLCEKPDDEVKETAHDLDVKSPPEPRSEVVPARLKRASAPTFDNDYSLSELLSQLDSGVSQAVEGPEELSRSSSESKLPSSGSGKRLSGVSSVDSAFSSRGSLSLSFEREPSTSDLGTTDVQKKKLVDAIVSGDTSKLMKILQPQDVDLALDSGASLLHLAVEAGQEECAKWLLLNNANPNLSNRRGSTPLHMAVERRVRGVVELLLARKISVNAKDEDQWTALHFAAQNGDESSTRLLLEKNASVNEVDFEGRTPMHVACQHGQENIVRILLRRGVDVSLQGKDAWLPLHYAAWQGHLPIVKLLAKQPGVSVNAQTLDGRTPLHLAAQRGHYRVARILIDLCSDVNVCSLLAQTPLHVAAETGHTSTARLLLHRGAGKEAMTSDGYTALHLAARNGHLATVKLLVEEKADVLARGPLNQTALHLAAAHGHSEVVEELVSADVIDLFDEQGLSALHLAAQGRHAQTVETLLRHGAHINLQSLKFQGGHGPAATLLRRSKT

SMILES: CNC(=O)Nc1ccc(-c2nc(N3CC4CCC(C3)O4)c3cnn(C4CCC5(CC4)OCCO5)c3n2)cc1
- kinase still bound, per cent of control (ABL2 (human)): 84%
- kinase still bound, per cent of control (ACVR2A (human)): 78%
- kinase still bound, per cent of control (AKT1 (human)): 81%
- kinase still bound, per cent of control (AKT3 (human)): 86%
- kinase still bound, per cent of control (AXL (human)): 88%
- kinase still bound, per cent of control (BMPR1B (human)): 83%
- kinase still bound, per cent of control (CAMK2A (human)): 100%
- kinase still bound, per cent of control (CDC2L2 (human)): 97%
- kinase still bound, per cent of control (CDK14 (human)): 94%
- kinase still bound, per cent of control (CLK3 (human)): 31%
- kinase still bound, per cent of control (CSNK1E (human)): 39%
- kinase still bound, per cent of control (DMPK (human)): 83%
- kinase still bound, per cent of control (DSTYK (human)): 100%
- kinase still bound, per cent of control (DYRK1B (human)): 100%
- kinase still bound, per cent of control (EPHB1 (human)): 90%
- kinase still bound, per cent of control (EPHB4 (human)): 100%
- kinase still bound, per cent of control (ERBB4 (human)): 100%
- kinase still bound, per cent of control (FGFR1 (human)): 100%
- kinase still bound, per cent of control (GSK3A (human)): 82%
- kinase still bound, per cent of control (MAP2K6 (human)): 95%
- kinase still bound, per cent of control (MAP4K5 (human)): 83%
- kinase still bound, per cent of control (MAPK1 (human)): 87%
- kinase still bound, per cent of control (MELK (human)): 92%
- kinase still bound, per cent of control (MYLK3 (human)): 100%
- kinase still bound, per cent of control (NEK4 (human)): 82%
- kinase still bound, per cent of control (NIM1 (human)): 100%
- kinase still bound, per cent of control (PAK1 (human)): 100%
- kinase still bound, per cent of control (PAK3 (human)): 99%
- kinase still bound, per cent of control (PIK3C2G (human)): 22%
- kinase still bound, per cent of control (PKMYT1 (human)): 75%
- kinase still bound, per cent of control (RAF1 (human)): 100%
- kinase still bound, per cent of control [1]: 85%
- kinase still bound, per cent of control (RIPK4 (human)): 98%
- kinase still bound, per cent of control (SRC (human)): 75%
- kinase still bound, per cent of control (SRPK3 (human)): 100%
- kinase still bound, per cent of control (STK11 (human)): 80%
- kinase still bound, per cent of control (STK24 (human)): 96%
- kinase still bound, per cent of control (STK25 (human)): 91%
- kinase still bound, per cent of control (TNIK (human)): 100%
- kinase still bound, per cent of control (ULK2 (human)): 90%
- kinase still bound, per cent of control (WEE2 (human)): 100%

SMILES: CC1=C(C(=O)Nc2cc3cn[nH]c3cc2F)C(c2ccc(C(F)(F)F)cc2)CC(=O)N1 (configuration not stated)
- kinase still bound, per cent of control (ABL2 (human)): 86%
- kinase still bound, per cent of control (ACVR2A (human)): 88%
- kinase still bound, per cent of control (AKT1 (human)): 76%
- kinase still bound, per cent of control (AKT3 (human)): 40%
- kinase still bound, per cent of control (AXL (human)): 84%
- kinase still bound, per cent of control (BMPR1B (human)): 65%
- kinase still bound, per cent of control (CAMK2A (human)): 100%
- kinase still bound, per cent of control (CDC2L2 (human)): 96%
- kinase still bound, per cent of control (CDK14 (human)): 89%
- kinase still bound, per cent of control (CLK3 (human)): 65%
- kinase still bound, per cent of control (CSNK1E (human)): 79%
- kinase still bound, per cent of control (DMPK (human)): 100%
- kinase still bound, per cent of control (DSTYK (human)): 69%
- kinase still bound, per cent of control (DYRK1B (human)): 84%
- kinase still bound, per cent of control (EPHB1 (human)): 91%
- kinase still bound, per cent of control (EPHB4 (human)): 88%
- kinase still bound, per cent of control (ERBB4 (human)): 41%
- kinase still bound, per cent of control (FGFR1 (human)): 73%
- kinase still bound, per cent of control (GSK3A (human)): 100%
- kinase still bound, per cent of control (MAP2K6 (human)): 95%
- kinase still bound, per cent of control (MAP4K5 (human)): 90%
- kinase still bound, per cent of control (MAPK1 (human)): 50%
- kinase still bound, per cent of control (MELK (human)): 99%
- kinase still bound, per cent of control (MYLK3 (human)): 92%
- kinase still bound, per cent of control (NEK4 (human)): 85%
- kinase still bound, per cent of control (NIM1 (human)): 86%
- kinase still bound, per cent of control (PAK1 (human)): 81%
- kinase still bound, per cent of control (PAK3 (human)): 36%
- kinase still bound, per cent of control (PIK3C2G (human)): 52%
- kinase still bound, per cent of control (PKMYT1 (human)): 100%
- kinase still bound, per cent of control (RAF1 (human)): 100%
- kinase still bound, per cent of control [1]: 39%
- kinase still bound, per cent of control (RIPK4 (human)): 98%
- kinase still bound, per cent of control (SRC (human)): 83%
- kinase still bound, per cent of control (SRPK3 (human)): 98%
- kinase still bound, per cent of control (STK11 (human)): 100%
- kinase still bound, per cent of control (STK24 (human)): 52%
- kinase still bound, per cent of control (STK25 (human)): 64%
- kinase still bound, per cent of control (TNIK (human)): 100%
- kinase still bound, per cent of control (ULK2 (human)): 85%
- kinase still bound, per cent of control (WEE2 (human)): 66%
